According to ChEMBL document CHEMBL5108044, “Discovery of a Novel Potent STAT3 Inhibitor HP590 with Dual p-Tyr705/Ser727 Inhibitory Activity for Gastric Cancer Treatment” (J Med Chem, 2022):
Activity calls are given as the source filed them. The rule behind the calls is not given here.

Experiments:
MKN-45 [1] = test: In vivo inhibition of STAT3 phosphorylation at Ser727 residue in human MKN-45 cells xenografted in BALB/c nude mouse at 25 to 50 mg/kg, po qd administered for 5 weeks by western blot analysis; type: functional, organism-based; details: dose 25-50 mg/kg
MKN-45 [2] = test: In vivo inhibition of STAT3 in human MKN-45 cells xenografted in BALB/c nude mouse assessed as reduction in c-myc gene expression at 25 to 50 mg/kg, po qd administered for 5 weeks by Western blot analysis; type: functional, organism-based; details: dose 25-50 mg/kg
MKN-45 [3] = test: In vivo inhibition of STAT3 in human MKN-45 cells xenografted in BALB/c nude mouse assessed as reduction in cyclin D1 gene expression at 25 to 50 mg/kg, po qd administered for 5 weeks by Western blot analysis; type: functional, organism-based; details: dose 25-50 mg/kg
MGC-803 = test: Antiproliferative activity against human MGC-803 cells assessed as reduction in cell viability incubated for 72 hrs by MTS assay; type: functional, cell-based; details: MGC-803, 72 h
[4] = target: T1, Signal transducer and activator of transcription 3 (Homo sapiens, UniProt P40763); test: Inhibition of STAT3 phosphorylation at Tyr705 residue in human MGC-803 cells upto 40 nM incubated upto 24 hrs by Western blotting analysis; type: cell-based
T1 sequence (P40763 whole entry): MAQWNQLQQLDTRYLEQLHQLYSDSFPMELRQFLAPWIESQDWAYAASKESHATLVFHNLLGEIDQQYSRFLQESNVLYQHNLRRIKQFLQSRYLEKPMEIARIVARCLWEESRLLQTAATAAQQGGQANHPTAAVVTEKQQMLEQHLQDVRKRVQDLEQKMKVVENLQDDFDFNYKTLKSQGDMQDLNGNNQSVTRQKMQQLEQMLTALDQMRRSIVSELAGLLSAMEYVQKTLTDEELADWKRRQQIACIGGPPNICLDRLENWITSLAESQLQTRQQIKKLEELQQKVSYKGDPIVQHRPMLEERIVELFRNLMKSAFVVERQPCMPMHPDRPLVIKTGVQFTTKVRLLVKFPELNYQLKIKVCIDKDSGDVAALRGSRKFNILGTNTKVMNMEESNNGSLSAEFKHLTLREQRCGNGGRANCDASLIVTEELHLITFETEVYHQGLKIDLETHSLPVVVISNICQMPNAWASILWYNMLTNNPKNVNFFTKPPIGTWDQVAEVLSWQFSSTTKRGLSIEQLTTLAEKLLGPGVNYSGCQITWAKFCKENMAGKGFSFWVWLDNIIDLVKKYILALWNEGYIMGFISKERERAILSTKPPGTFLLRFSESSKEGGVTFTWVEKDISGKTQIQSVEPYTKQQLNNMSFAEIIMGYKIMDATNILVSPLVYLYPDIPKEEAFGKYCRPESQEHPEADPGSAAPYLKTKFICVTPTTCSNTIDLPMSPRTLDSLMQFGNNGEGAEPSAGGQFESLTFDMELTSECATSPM

[5] = target: T1, Signal transducer and activator of transcription 3; test: Inhibition of STAT3 phosphorylation at Ser727 residue in human MKN-45 cells upto 40 nM incubated upto 24 hrs by Western blotting analysis; type: cell-based
[6] = target: T1, Signal transducer and activator of transcription 3; test: Inhibition of STAT3 phosphorylation at Tyr705 residue in human MKN-45 cells upto 40 nM by Western blotting analysis; type: cell-based; details: time <= 24.0 hrs, TDE = time-dependent effect
[7] = target: T1, Signal transducer and activator of transcription 3; test: Inhibition of STAT3 phosphorylation at Tyr705 residue in human MGC-803 cells upto 40 nM by Western blotting analysis; type: cell-based; details: time <= 24.0 hrs, TDE = time-dependent effect
[8] = target: Tyrosine-protein kinase JAK2 (Homo sapiens, UniProt O60674); test: Inhibition of JAK2 (unknown origin)
Sequence of Tyrosine-protein kinase JAK2 (O60674 whole entry): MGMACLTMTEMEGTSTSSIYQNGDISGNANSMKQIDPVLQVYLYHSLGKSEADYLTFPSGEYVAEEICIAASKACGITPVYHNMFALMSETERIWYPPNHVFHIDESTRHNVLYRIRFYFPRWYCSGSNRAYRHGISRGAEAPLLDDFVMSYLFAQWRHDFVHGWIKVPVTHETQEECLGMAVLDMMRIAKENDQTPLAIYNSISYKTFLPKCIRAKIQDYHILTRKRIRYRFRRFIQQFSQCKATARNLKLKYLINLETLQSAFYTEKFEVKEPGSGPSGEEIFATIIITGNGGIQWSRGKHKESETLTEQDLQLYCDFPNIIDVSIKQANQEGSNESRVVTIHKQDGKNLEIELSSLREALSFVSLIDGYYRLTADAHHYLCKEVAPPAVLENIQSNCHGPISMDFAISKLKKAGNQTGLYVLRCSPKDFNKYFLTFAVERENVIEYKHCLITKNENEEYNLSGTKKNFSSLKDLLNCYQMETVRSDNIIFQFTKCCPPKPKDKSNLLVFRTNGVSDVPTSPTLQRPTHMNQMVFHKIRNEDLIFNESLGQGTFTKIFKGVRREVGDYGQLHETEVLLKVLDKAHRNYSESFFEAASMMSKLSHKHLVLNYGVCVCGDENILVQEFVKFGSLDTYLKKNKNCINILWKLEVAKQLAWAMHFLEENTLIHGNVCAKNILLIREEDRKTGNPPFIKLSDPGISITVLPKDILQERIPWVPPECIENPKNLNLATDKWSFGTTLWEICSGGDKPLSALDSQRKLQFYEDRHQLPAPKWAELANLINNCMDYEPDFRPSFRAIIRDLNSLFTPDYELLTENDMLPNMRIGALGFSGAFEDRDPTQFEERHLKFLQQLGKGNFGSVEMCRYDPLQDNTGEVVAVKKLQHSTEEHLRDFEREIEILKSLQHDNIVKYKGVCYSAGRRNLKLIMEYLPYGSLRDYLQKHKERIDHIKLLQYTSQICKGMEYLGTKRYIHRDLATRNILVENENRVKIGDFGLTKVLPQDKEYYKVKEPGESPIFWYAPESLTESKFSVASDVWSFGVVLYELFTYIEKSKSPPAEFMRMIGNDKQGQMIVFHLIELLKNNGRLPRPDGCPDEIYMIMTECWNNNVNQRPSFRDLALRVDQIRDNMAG

[9] = target: Mitogen-activated protein kinase 3 (Homo sapiens, UniProt P27361); test: Inhibition of ERK1 (unknown origin)
Sequence of Mitogen-activated protein kinase 3 (P27361 whole entry): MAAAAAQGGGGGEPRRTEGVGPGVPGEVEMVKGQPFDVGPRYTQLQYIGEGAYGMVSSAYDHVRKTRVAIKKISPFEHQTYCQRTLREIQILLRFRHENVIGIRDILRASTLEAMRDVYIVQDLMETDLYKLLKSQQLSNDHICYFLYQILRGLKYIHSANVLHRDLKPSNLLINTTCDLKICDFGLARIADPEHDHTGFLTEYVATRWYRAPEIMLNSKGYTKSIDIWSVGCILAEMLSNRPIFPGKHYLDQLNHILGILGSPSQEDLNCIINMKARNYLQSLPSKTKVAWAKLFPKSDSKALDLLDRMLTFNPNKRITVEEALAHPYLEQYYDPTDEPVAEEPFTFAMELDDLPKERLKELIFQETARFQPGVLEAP

[10] = target: T1, Signal transducer and activator of transcription 3; test: Inhibition of STAT3 in human MGC-803 cells assessed as downregulation of cyclin D1 expression incubated up to 24 hrs by western blot analysis; type: cell-based; details: dose <= 40.0 nM, DDE = dose-dependent effect
[11] = target: T1, Signal transducer and activator of transcription 3; test: Inhibition of STAT3 in human MKN-45 cells assessed as downregulation of cyclin D1 expression incubated up to 24 hrs by western blot analysis; type: cell-based; details: dose <= 40.0 nM, DDE = dose-dependent effect
[12] = target: T1, Signal transducer and activator of transcription 3; test: Inhibition of STAT3 in human MGC-803 cells assessed as downregulation of c-Myc expression up to 40 nM by western blot analysis; type: cell-based; details: time <= 24.0 hrs, DDE = dose-dependent effect
[13] = target: T1, Signal transducer and activator of transcription 3; test: Inhibition of STAT3 in human MKN-45 cells assessed as downregulation of cyclin D1 expression up to 40 nM by western blot analysis; type: cell-based; details: time <= 24.0 hrs, TDE = time-dependent effect
[14] = target: T1, Signal transducer and activator of transcription 3; test: Inhibition of STAT3 in human MKN-45 cells assessed as downregulation of c-myc expression at 10 to 40 nM incubated for 24 hrs by RT-PCR analysis; type: cell-based; details: dose 10-40 nM
[15] = target: T1, Signal transducer and activator of transcription 3; test: Inhibition of STAT3 in human AGS cells assessed as downregulation of Survivin expression at 10 to 40 nM incubated for 24 hrs by RT-PCR analysis; type: cell-based; details: dose 10-40 nM
[16] = target: T1, Signal transducer and activator of transcription 3; test: Inhibition of phosphorylated STAT3 nuclear translocation at Tyr705 residue in human MKN-45 cells measured at 5 to 40 nM by immunoblotting analysis; type: cell-based; details: dose 5-40 nM
MKN-45 [17] = test: Inhibition of mitochondrial respiration in human MKN-45 cells assessed as maximal oxygen consumption rate at 1 to 100 nM incubated for 1 hr by Seahorse XF24 extracellular flux analyzer; type: functional, cell-based; details: dose 1-100 nM
MKN-45 [18] = test: Inhibition of mitochondrial respiration in STAT3 knockdown human MKN-45 cells assessed as oxygen consumption rate incubated for 80 mins […]; type: functional, cell-based
MKN-45 [19] = test: Inhibition of mitochondrial respiration in STAT3 knockdown human MKN-45 cells assessed as maximal oxygen consumption rate incubated for 80 mins […]; type: functional, cell-based
NIH3T3 = test: Antiproliferative activity against […] cells assessed as cell viability measured upto 1 uM incubated for 72 hrs by MTS assay; type: toxicity, cell-based; details: mouse, nih3t3, 72 h
AGS [20] = test: Induction of apoptosis in human AGS cells assessed as viable cells at 20 nM incubated for 48 hrs by FITC-annexin V/propidium iodide staining based flow cytometry (reference value: 87.2%); type: functional; details: read-out: Activity
MKN-45 [21] = test: Induction of apoptosis in human MKN-45 cells assessed as necrotic cells 5 nM incubated for 48 hrs by FITC-annexin V/propidium iodide staining based flow cytometry (reference value: 10.3%); type: functional
MKN-45 [22] = test: Induction of apoptosis in human MKN-45 cells assessed as early apoptic cells 20 nM incubated for 48 hrs by FITC-annexin V/propidium iodide staining based flow cytometry (reference value: 2.79%); type: functional
AGS [23] = test: Induction of apoptosis in human AGS cells assessed as late apoptic cells 10 nM incubated for 48 hrs by FITC-annexin V/propidium iodide staining based flow cytometry (reference value: 9.56%); type: functional
AGS [24] = test: Induction of apoptosis in human AGS cells assessed as necrotic cells 10 nM incubated for 48 hrs by FITC-annexin V/propidium iodide staining based flow cytometry (reference value: 2.70%); type: functional
AGS [25] = test: Induction of apoptosis in human AGS cells assessed as necrotic cells 20 nM incubated for 48 hrs by FITC-annexin V/propidium iodide staining based flow cytometry (reference value: 2.70%); type: functional
[26] = AUC (0 to infinity) in ICR mouse plasma at 1 mg/kg, iv measured up to 24 hrs by LC-MS/MS analysis; type: ADME, organism-based; parameters: time < 24 hrs, dose 1 mg/kg, route iv
[27] = Oral bioavailability in ICR mouse plasma at 10 mg/kg measured up to 24 hrs by LC-MS/MS analysis; type: ADME, organism-based
MKN-45 [28] = test: Potency index, ratio of IC50 for BBI608 to IC50 for test compound for antiproliferative activity against human MKN-45 cells assessed as reduction in cell viability incubated for 72 hrs by MTS assay; type: functional
[29] = Toxicity in BALB/c nude mouse xenografted with human MKN-45 cells assessed as kidney damage at 25 to 50 mg/kg, po qd administered for 5 weeks by H and E staining based analysis; type: organism-based; details: in vivo, 840 h, dose 25-50 mg/kg
[30] = Toxicity in BALB/c nude mouse xenografted with human MKN-45 cells assessed as lung damage at 25 to 50 mg/kg, po qd administered for 5 weeks by H and E staining based analysis; type: organism-based; details: in vivo, 840 h, dose 25-50 mg/kg
[31] = Toxicity in BALB/c nude mouse xenografted with human MKN-45 cells assessed as heart damage at 25 to 50 mg/kg, po qd administered for 5 weeks by H and E staining based analysis; type: organism-based; details: in vivo, 840 h, dose 25-50 mg/kg
[32] = Toxicity in […] mouse xenografted with human MKN-45 cells assessed as liver damage at 25 to 50 mg/kg, po qd administered for 5 weeks by H and E staining based analysis; type: organism-based; details: in vivo, 840 h, dose 25-50 mg/kg
MKN-45 [33] = test: Inhibition of STAT3 mediated oxidative phosphorylation at Ser727 residue in human MKN-45 cells assessed as reduction in oxidative phosphorylation at less than 40 nM incubated for 1 hr by Seahorse XF24 extracellular flux analyzer; type: functional, cell-based

O=C(c1ccc(-c2noc(-c3ccc(C(F)(F)F)cc3)n2)cc1)N1CCN(Cc2ccc(OCC(F)(F)F)cc2)CC1
inhibition (MKN-45 [1]): Active | inhibition (MKN-45 [2]): Active | inhibition (MKN-45 [3]): Active | IC50 (MGC-803): 0.0087 µM | inhibition [4]: 100% | inhibition [5]: 100% | inhibition [6]: Tde | inhibition [7]: Tde | IC50 [8]: > 10 µM | IC50 [9]: > 10 µM | inhibition [10]: Dde | inhibition [11]: Dde | inhibition [12]: Dde | inhibition [13]: Tde | inhibition [14]: Active | inhibition [15]: Active | inhibition [16]: Active | inhibition (MKN-45 [17]): Active | inhibition (MKN-45 [18]): Active | inhibition (MKN-45 [19]): Active | Activity (NIH3T3): Non-Toxic | viability at 0.02 µM (AGS [20]): 50.3% | Activity (MKN-45 [21]): 8.54% | Activity (MKN-45 [22]): 5.06% | Activity (AGS [23]): 10.4% | Activity (AGS [24]): 4.79% | Activity (AGS [25]): 0.8% | AUC(0-inf) [26]: 2270 ng·h/mL | bioavailability [27]: 54.4% | Ratio IC50 (MKN-45 [28]): 30 | Activity [29]: Non-Toxic | Activity [30]: Non-Toxic | Activity [31]: Non-Toxic | Activity [32]: Non-Toxic | inhibition (MKN-45 [33]): Active
